Data on 2 compounds can be found in patent US20190224187A1, “NEW USE OF ISOQUINOLINE DERIVATIVES FOR WOUND HEALING” (ZIH YUAN TANG Biotechnology Co., Ltd, priority 2018, published 2019).

One experiment concerns blood glucose. The settings on record: U.S. Pat. No. 9,707,222; cited from earlier work.
The test system of experiment [1] is AMP-dependent protein kinase (AMPK). The settings on record: U.S. Pat. No. 9,707,222; cited from earlier work.
In experiment [2] the test system is excisional full-thickness square-shaped skin wound. The experiment can be described thus: Effect of salsolinol ointment on excisional full-thickness skin wound healing in guinea pigs. The settings on record: for recover rate of wound vs vehicle control: another experiment; for wound recovery (wound images) vs vehicle controls: FIG. 3. In kind it is in vivo. The procedure: Salsolinol ointments at 0.01 mg/g, 0.03 mg/g and 0.1 mg/g were prepared respectively by dissolving 0.5 mg, 1.5 mg, and 5 mg of salsoinol in 2.5 mL of glycerol (Sigma Inc., MO, USA) plus 1.0 mL of Creagel emulsifier (First Chemical, TPE, Taiwan) and 45.5 mL of distilled water. Vehicle was composed of glycerol (2.5 mL), Creagel emulsifier (1.0 mL), and distilled water (45.5 mL).
Guinea pigs were purchased and were acclimatized at a room temperature, and had free access to water. All experimental procedures were approved by and performed in compliance with the guidelines of the Institutional Animal Care and Use Committee (IACUC). All surgeries were conducted while animals were under continuous anesthesia with 4% isoflurane.
The dorsal skin was shaved and then disinfected with 10% povidone-iodine before an excisional full-thickness square-shaped skin wound (1.0×1.0 cm) was induced using a sterile wound maker. Animals were then housed alone in its cage to avoid any further wound damage.
Animals were randomly divided into six groups (n=5 or 6, each group) as follows: • (1) animals treated with salsolinol at a concentration of 0.01 mg/g (C0.01, n=6); • (2) animal treated with the vehicle (V0.01) as compared with the group C0.01; • (3) animal treated with salsolinol at a concentration of 0.03 mg/g (C0.03, n=5); • (4) animal treated with the vehicle (V0.03) as compared with the group C0.03.
The groups were administered at the same amount of the salsolinol at 0.01 mg/g, and 0.03 mg/g or the vechile at the same amount once daily and the wounds were photopictured on Day 1, Day 3, Day 5, Day 7, Day 10, and Day 14. The sizes of the wounds were analyzed using Visual Basic 6.0. The rate of wound recovery at each experimental time point is calculated by the size of the wound as compared with that of the wound at D1, wherein the rate of wound recovery at Day 1 is 1.0.
In another experiment, the wounds of the guinea pigs were treated with salsolinol at a concentration of 0.001 mg/g, 0.01 mg/g or the vehicle at the same amount once daily and the wounds were photopictured on Day 1, Day 3, Day 5, Day 7, Day 10, and Day 14. The sizes of the wounds were analyzed using Visual Basic 6.0. The recovery rate of the wound at each experimental time point was calculated by the size of the wound as compared with that of the wound at D1, wherein the recover rate of wound at Day 1 is 0.0%.

Take `COc1ccc(C[C@H]2c3cc(O)c(OC)cc3CCN2C)cc1O` [reticuline, reference compound]: the “efficacy in reducing blood glucose” value in the experiment with blood glucose is reported as “has an efficacy in reducing blood glucose”. In addition, the “activation of AMPK” value in experiment [1] is given as “can activate”.

Take `CC1NCCc2cc(O)c(O)cc21` (stereo not drawn) [salsolinol]: the “efficacy in reducing blood glucose” value in the experiment on blood glucose was “has an efficacy in reducing blood glucose”. In addition, the “recover rate of wound vs vehicle control” value was “better than that of the control group” in experiment [2] (salsolinol 0.001 mg/g (C0.001) once daily, FIG. 4) and “significantly better” in experiment [2] (salsolinol 0.01 mg/g (C0.01) once daily, after Day 3, p<0.05, FIG. 5). In addition, the “wound healing (rate of wound recovery) vs vehicle control” value in experiment [2] (salsolinol 0.01 mg/g (C0.01) once daily vs V0.01, Day 3, Day 5 and Day 7, p<0.01, FIG. 1) is on record as “significantly better”; in experiment [2] (salsolinol 0.03 mg/g (C0.03) once daily vs V0.03, Day 3, p<0.05, FIG. 2) it was “significantly better”. Moreover, the “wound recovery (wound images) vs vehicle controls” value in experiment [2] (salsolinol 0.01 mg/g), in experiment [2] (salsolinol 0.03 mg/g) and in experiment [2] (salsolinol 0.1 mg/g) was “better than the controls” each time. In addition, the “wound recovery vs control groups (summary)” value in experiment [2] (salsolinol at 0.001 mg/g to 0.03 mg/g, preferably 0.01 mg/g) is “enhanced the wound recovery”. Further, in experiment [1], the “activation of AMPK” value is “can activate”.
